Where two headings read alike, the source gives them in different places.
Assays:
[1] = Determination of moisture contents with KF moisture meter at different time points; format: physicochemical; settings: temperature 23° C., humidity 92.5%
Source text: (§1) For R-3-hydroxybutyric acid, potassium R-3-hydroxybutyrate, mixture of R-3-hydroxybutyric acid and potassium R-3-hydroxybutyrate, and R-3-hydroxybutyric acid·potassium R-3-hydroxybutyrate complex of Example 1, under a certain condition, KF moisture meter was used to determine the moisture contents at different time points.
as §1, with “3-hydroxybutyric” for “R-3-hydroxybutyric”, “3-hydroxybutyrate,” for “R-3-hydroxybutyrate,”, “3-hydroxybutyrate” for “R-3-hydroxybutyrate”, “7,” for “1,”
as §1, with “S-3-hydroxybutyric” for “R-3-hydroxybutyric”, “S-3-hydroxybutyrate,” for “R-3-hydroxybutyrate,”, “S-3-hydroxybutyrate” for “R-3-hydroxybutyrate”, “13,” for “1,”
as §1, with “calcium” for “potassium”, “acid·calcium” for “acid·potassium”, “19,” for “1,”
(§2) For 3-hydroxybutyric acid, calcium 3-hydroxybutyrate, mixture of 3-hydroxybutyric acid and calcium 3-hydroxybutyrate, and 3-hydroxybutyric acid·calcium 3-hydroxybutyrate complex of Example 25, under a certain condition, KF moisture meter was used to determine the moisture contents at different time points.
as §2, with “S-3-hydroxybutyric” for “3-hydroxybutyric”, “S-3-hydroxybutyrate,” for “3-hydroxybutyrate,”, “S-3-hydroxybutyrate” for “3-hydroxybutyrate”, “31,” for “25,”
as §1, with “magnesium” for “potassium”, “acid·magnesium” for “acid·potassium”, “37,” for “1,”
as §2, with “magnesium” for “calcium”, “acid·magnesium 3-hydroxy butyrate” for “acid·calcium 3-hydroxybutyrate”, “43,” for “25,”
For S-3-hydroxybutyric acid, magnesium S-3-hydroxybutyrate, mixture of S-3-hydroxybutyric acid and magnesium S-3-hydroxybutyrate, and S-3-hydroxybutyric acid·magnesium S-3-hydroxybutyrate complex of Example 49, under a certain condition, KF moisture meter was used to determine the moisture contents at different time points.
(§3) For R-3-hydroxypentanoic acid, sodium R-3-hydroxypentanoate, mixture of R-3-hydroxypentanoic acid and sodium R-3-hydroxypentanoate, and R-3-hydroxypentanoic acid·sodium R-3-hydroxypentanoate complex of Example 55, under a certain condition, KF moisture meter was used to determine the moisture contents at different time points.
as §3, with “3-hydroxypentanoic” for “R-3-hydroxypentanoic”, “3-hydroxypentanoate,” for “R-3-hydroxypentanoate,”, “3-hydroxypentanoate” for “R-3-hydroxypentanoate”, “61,” for “55,”
as §3, with “S-3-hydroxypentanoic” for “R-3-hydroxypentanoic”, “S-3-hydroxypentanoate,” for “R-3-hydroxypentanoate,”, “S-3-hydroxypentanoate” for “R-3-hydroxypentanoate”, “67,” for “55,”

[2] = Stability of complexes at 30-80° C.; format: physicochemical
Source text: For R-3-hydroxybutyric acid, potassium R-3-hydroxybutyrate, mixture of R-3-hydroxybutyric acid and potassium R-3-hydroxybutyrate, and R-3-hydroxybutyric acid·potassium R-3-hydroxybutyrate complex of Example 1, […]
For 3-hydroxybutyric acid, potassium 3-hydroxybutyrate, mixture of 3-hydroxybutyric acid and potassium 3-hydroxybutyrate, and 3-hydroxybutyric acid·potassium 3-hydroxybutyrate complex of Example 7, […]
For S-3-hydroxybutyric acid, potassium S-3-hydroxybutyrate, mixture of S-3-hydroxybutyric acid and potassium S-3-hydroxybutyrate, and S-3-hydroxybutyric acid·potassium S-3-hydroxybutyrate complex of Example 13, […]
For R-3-hydroxybutyric acid, calcium R-3-hydroxybutyrate, mixture of R-3-hydroxybutyric acid and calcium R-3-hydroxybutyrate, and R-3-hydroxybutyric acid·calcium R-3-hydroxybutyrate complex of Example 19, […]
For 3-hydroxybutyric acid, calcium 3-hydroxybutyrate, mixture of 3-hydroxybutyric acid and calcium 3-hydroxybutyrate, and 3-hydroxybutyric acid·calcium 3-hydroxybutyrate complex of Example 25, […]
For S-3-hydroxybutyric acid, calcium S-3-hydroxybutyrate, mixture of S-3-hydroxybutyric acid and calcium S-3-hydroxybutyrate, and S-3-hydroxybutyric acid·calcium S-3-hydroxybutyrate complex of Example 31, […]
For R-3-hydroxybutyric acid, magnesium R-3-hydroxybutyrate, mixture of R-3-hydroxybutyric acid and magnesium R-3-hydroxybutyrate, and R-3-hydroxybutyric acid·magnesium R-3-hydroxybutyrate complex of Example 37, […]
For 3-hydroxybutyric acid, magnesium 3-hydroxybutyrate, mixture of 3-hydroxybutyric acid and magnesium 3-hydroxybutyrate, and 3-hydroxybutyric acid·magnesium 3-hydroxybutyrate complex of Example 43, […]
For S-3-hydroxybutyric acid, magnesium S-3-hydroxybutyrate, mixture of S-3-hydroxybutyric acid and magnesium S-3-hydroxybutyrate, and S-3-hydroxybutyric acid·magnesium S-3-hydroxybutyrate complex of Example 49, […]
For R-3-hydroxypentanoic acid, sodium R-3-hydroxypentanoate, mixture of R-3-hydroxypentanoic acid and sodium R-3-hydroxypentanoate, and R-3-hydroxypentanoic acid·sodium R-3-hydroxypentanoate complex of Example 55, […]
For 3-hydroxypentanoic acid, sodium 3-hydroxypentanoate, mixture of 3-hydroxypentanoic acid and sodium 3-hydroxypentanoate, and 3-hydroxypentanoic acid·sodium 3-hydroxypentanoate complex of Example 61, […]
For S-3-hydroxypentanoic acid, sodium S-3-hydroxypentanoate, mixture of S-3-hydroxypentanoic acid and sodium S-3-hydroxypentanoate, and S-3-hydroxypentanoic acid·sodium S-3-hydroxypentanoate complex of Example 67, […]

CC(O)CC(=O)O (centres unmarked) [3-hydroxybutyric acid]
moisture content (%) ([1]; 30 min): 1.32%
moisture content (%) ([1]; 1 h): 2.37%
moisture content (%) ([1]; 2 h): 4.15%
moisture content (%) ([1]; 4 h): 6.59%
moisture content (%) ([1]; 6 h): 9.68%
moisture content (%) ([1]; 7 h): 10.71%
moisture content (%) ([1]; 11 h): 17.33%
moisture content (%) ([1]; 22 h): 33.51%

CC(O)CC(=O)O.CC(O)CC(=O)[O-].CC(O)CC(=O)[O-].[Ca+2] (centres unmarked) [3-hydroxybutyric acid·calcium 3-hydroxybutyrate]
moisture content (%) ([1]; 30 min): 0.56%
moisture content (%) ([1]; 1 h): 1.12%
moisture content (%) ([1]; 2 h): 1.86%
moisture content (%) ([1]; 4 h): 3.19%
moisture content (%) ([1]; 6 h): 4.68%
moisture content (%) ([1]; 7 h): 5.45%
moisture content (%) ([1]; 11 h): 8.72%
moisture content (%) ([1]; 22 h): 14.43%
Stability ([2]; 30° C.): unchanged
Stability ([2]; 40° C.): unchanged
Stability ([2]; 50° C.): unchanged
Stability ([2]; 60° C.): unchanged
Stability ([2]; 80° C.): melted

CC(O)CC(=O)O.CC(O)CC(=O)[O-].CC(O)CC(=O)[O-].[Mg+2] (centres unmarked) [3-hydroxybutyric acid·magnesium 3-hydroxybutyrate]
moisture content (%) ([1]; 30 min): 0.56%
moisture content (%) ([1]; 1 h): 0.97%
moisture content (%) ([1]; 2 h): 1.82%
moisture content (%) ([1]; 4 h): 3.26%
moisture content (%) ([1]; 6 h): 4.62%
moisture content (%) ([1]; 7 h): 5.57%
moisture content (%) ([1]; 11 h): 8.75%
moisture content (%) ([1]; 22 h): 14.68%
Stability ([2]; 30° C.): unchanged
Stability ([2]; 40° C.): unchanged
Stability ([2]; 50° C.): unchanged
Stability ([2]; 60° C.): Unchanged
Stability ([2]; 80° C.): melted

CC(O)CC(=O)O.CC(O)CC(=O)[O-].[K+] (centres unmarked) [3-hydroxybutyric acid·potassium 3-hydroxybutyrate]
moisture content (%) ([1]; 30 min): 0.68%
moisture content (%) ([1]; 1 h): 1.28%
moisture content (%) ([1]; 2 h): 1.93%
moisture content (%) ([1]; 4 h): 3.68%
moisture content (%) ([1]; 6 h): 5.92%
moisture content (%) ([1]; 7 h): 6.84%
moisture content (%) ([1]; 11 h): 9.67%
moisture content (%) ([1]; 22 h): 19.25%
Stability ([2]; 30° C.): unchanged
Stability ([2]; 40° C.): unchanged
Stability ([2]; 50° C.): Unchanged
Stability ([2]; 60° C.): unchanged
Stability ([2]; 80° C.): melted

CCC(O)CC(=O)O (centres unmarked) [3-hydroxypentanoic acid]
moisture content (%) ([1]; 30 min): 1.10%
moisture content (%) ([1]; 1 h): 1.98%
moisture content (%) ([1]; 2 h): 3.46%
moisture content (%) ([1]; 4 h): 5.49%
moisture content (%) ([1]; 6 h): 8.07%
moisture content (%) ([1]; 7 h): 8.93%
moisture content (%) ([1]; 11 h): 14.44%
moisture content (%) ([1]; 22 h): 27.93%

CCC(O)CC(=O)O.CCC(O)CC(=O)[O-].[Na+] (centres unmarked) [3-hydroxypentanoic acid·sodium 3-hydroxypentanoate]
moisture content (%) ([1]; 30 min): 0.51%
moisture content (%) ([1]; 1 h): 0.98%
moisture content (%) ([1]; 2 h): 1.71%
moisture content (%) ([1]; 4 h): 2.82%
moisture content (%) ([1]; 6 h): 4.16%
moisture content (%) ([1]; 7 h): 4.60%
moisture content (%) ([1]; 11 h): 7.28%
moisture content (%) ([1]; 22 h): 14.69%
Stability [2]: unchanged

C[C@H](O)CC(=O)[O-].C[C@H](O)CC(=O)[O-].[Ca+2] [Calcium S-3-hydroxybutyrate, calcium S-3-hydroxybutyrate]
moisture content (%) ([1]; 30 min): 0.88%
moisture content (%) ([1]; 1 h): 1.92%
moisture content (%) ([1]; 2 h): 2.25%
moisture content (%) ([1]; 4 h): 4.18%
moisture content (%) ([1]; 6 h): 5.24%
moisture content (%) ([1]; 7 h): 6.25%
moisture content (%) ([1]; 11 h): 10.34%
moisture content (%) ([1]; 22 h): 17.55%

C[C@H](O)CC(=O)[O-].C[C@H](O)CC(=O)[O-].[Mg+2] [Magnesium S-3-hydroxybutyrate, magnesium S-3-hydroxybutyrate]
moisture content (%) ([1]; 30 min): 0.88%
moisture content (%) ([1]; 1 h): 1.28%
moisture content (%) ([1]; 2 h): 2.43%
moisture content (%) ([1]; 4 h): 4.22%
moisture content (%) ([1]; 6 h): 6.37%
moisture content (%) ([1]; 7 h): 8.24%
moisture content (%) ([1]; 11 h): 12.35%
moisture content (%) ([1]; 22 h): 18.54%

CC(O)CC(=O)[O-].[K+] (centres unmarked) [Potassium 3-hydroxybutyrate, potassium 3-hydroxybutyrate]
moisture content (%) ([1]; 30 min): 1.14%
moisture content (%) ([1]; 1 h): 1.93%
moisture content (%) ([1]; 2 h): 3.22%
moisture content (%) ([1]; 4 h): 4.98%
moisture content (%) ([1]; 6 h): 7.77%
moisture content (%) ([1]; 7 h): 8.34%
moisture content (%) ([1]; 11 h): 16.82%
moisture content (%) ([1]; 22 h): 32.86%

C[C@@H](O)CC(=O)[O-].[K+] [Potassium R-3-hydroxybutyrate, potassium R-3-hydroxybutyrate]
moisture content (%) ([1]; 30 min): 1.04%
moisture content (%) ([1]; 1 h): 1.91%
moisture content (%) ([1]; 2 h): 3.19%
moisture content (%) ([1]; 4 h): 4.93%
moisture content (%) ([1]; 6 h): 7.65%
moisture content (%) ([1]; 7 h): 8.24%
moisture content (%) ([1]; 11 h): 16.72%
moisture content (%) ([1]; 22 h): 32.68%

C[C@H](O)CC(=O)[O-].[K+] [Potassium S-3-hydroxybutyrate, potassium S-3-hydroxybutyrate]
moisture content (%) ([1]; 30 min): 1.06%
moisture content (%) ([1]; 1 h): 1.92%
moisture content (%) ([1]; 2 h): 3.22%
moisture content (%) ([1]; 4 h): 4.97%
moisture content (%) ([1]; 6 h): 7.55%
moisture content (%) ([1]; 7 h): 8.34%
moisture content (%) ([1]; 11 h): 16.82%
moisture content (%) ([1]; 22 h): 32.75%

C[C@@H](O)CC(=O)O [R-3-hydroxybutyric acid]
moisture content (%) ([1]; 30 min): 1.13%
moisture content (%) ([1]; 1 h): 2.25%
moisture content (%) ([1]; 2 h): 3.96%
moisture content (%) ([1]; 4 h): 6.46%
moisture content (%) ([1]; 6 h): 9.52%
moisture content (%) ([1]; 7 h): 10.56%
moisture content (%) ([1]; 11 h): 17.22%
moisture content (%) ([1]; 22 h): 33.34%

CC[C@@H](O)CC(=O)O [R-3-hydroxypentanoic acid]
moisture content (%) ([1]; 30 min): 0.94%
moisture content (%) ([1]; 1 h): 1.88%
moisture content (%) ([1]; 2 h): 3.30%
moisture content (%) ([1]; 4 h): 5.38%
moisture content (%) ([1]; 6 h): 7.93%
moisture content (%) ([1]; 7 h): 8.80%
moisture content (%) ([1]; 11 h): 14.35%
moisture content (%) ([1]; 22 h): 27.78%

CC[C@H](O)CC(=O)O [S-3-hydroxypentanoic acid]
moisture content (%) ([1]; 30 min): 1.03%
moisture content (%) ([1]; 1 h): 1.90%
moisture content (%) ([1]; 2 h): 3.38%
moisture content (%) ([1]; 4 h): 5.27%
moisture content (%) ([1]; 6 h): 7.94%
moisture content (%) ([1]; 7 h): 8.85%
moisture content (%) ([1]; 11 h): 14.23%
moisture content (%) ([1]; 22 h): 27.46%

Reference: patent publication US20260184662A1, “COMPOSITE OF ACID AND SALT, AND PREPARATION METHOD THEREFOR” (NANJING NUTRABUILDING BIO-TECH CO., LTD., priority 2022, published 2026)
